Results taken from patent publication US8791108B2, “Inhibitors of human immunodeficiency virus replication” (priority 2011, dated 2014).
Where two headings read alike, the source gives them in different places.

Test system: recombinant NL-Rluc virus
Experiment: Inhibition of HIV replication (NL-RLuc luciferase reporter virus, MT-2 cells)
Assay type: cell-based
Conditions: Human immunodeficiency virus 1, MT2, 120 h

| SMILES | EC50 (read-out: Activity) | EC50 (read-out: EC50 μM) |
| --- | --- | --- |
| Cc1nc2cc(C(=O)N3CCC(c4ccccc4)CC3)nn2c(-c2cc(F)c3c(c2C)CCCO3)c1[C@H](OC(C)(C)C)C(=O)O [Example 78, (2S)-2-(tert-butoxy)-2-(7-(8-fluoro-5-methylchroman-6-yl)-5-methyl-2-(4-phenylpiperidine-1-carbonyl)pyrazolo[1,5-a]pyrimidin-6-yl)acetic acid] | < 0.1 µM |  |
| Cc1nc2cc(C(=O)N3CCc4ccccc4C3)nn2c(-c2cc(F)c3c(c2C)CCCO3)c1[C@H](OC(C)(C)C)C(=O)O [Example 79, (2S)-2-(tert-butoxy)-2-(7-(8-fluoro-5-methylchroman-6-yl)-5-methyl-2-(1,2,3,4-tetrahydroisoquinoline-2-carbonyl)pyrazolo[1,5-a]pyrimidin-6-yl)acetic acid] | < 0.1 µM |  |
| Cc1nc2cc(C(=O)N3CCN(c4cccc(Cl)c4)CC3)nn2c(-c2cc(F)c3c(c2C)CCCO3)c1[C@H](OC(C)(C)C)C(=O)O [Example 80, (2S)-2-(tert-butoxy)-2-(2-(4-(3-chlorophenyl)piperazine-1-carbonyl)-7-(8-fluoro-5-methylchroman-6-yl)-5-methylpyrazolo[1,5-a]pyrimidin-6-yl)acetic acid] | < 0.1 µM |  |
| Cc1nc2cc(C(=O)NCCc3cccc(Cl)c3)nn2c(-c2cc(F)c3c(c2C)CCCO3)c1[C@H](OC(C)(C)C)C(=O)O [Example 81, (2S)-2-(tert-butoxy)-2-(2-((3-chlorophenethyl)carbamoyl)-7-(8-fluoro-5-methylchroman-6-yl)-5-methylpyrazolo[1,5-a]pyrimidin-6-yl)acetic acid] | < 0.1 µM |  |
| Cc1nc2cc(C(=O)NC3CCN(Cc4ccccc4)C3)nn2c(-c2cc(F)c3c(c2C)CCCO3)c1[C@H](OC(C)(C)C)C(=O)O (stereo partly drawn) [Example 82, (2S)-2-(2-((1-benzylpyrrolidin-3-yl)carbamoyl)-7-(8-fluoro-5-methylchroman-6-yl)-5-methylpyrazolo[1,5-a]pyrimidin-6-yl)-2-(tert-butoxy)acetic acid] | 0.1 to 1 µM |  |
| CCN1CCN(C(=O)c2cc3nc(C)c([C@H](OC(C)(C)C)C(=O)O)c(-c4cc(F)c5c(c4C)CCCO5)n3n2)CC1 [Example 83, (2S)-2-(tert-butoxy)-2-(2-(4-ethylpiperazine-1-carbonyl)-7-(8-fluoro-5-methylchroman-6-yl)-5-methylpyrazolo[1,5-a]pyrimidin-6-yl)acetic acid] | > 1 µM |  |
| Cc1nc2cc(C(=O)Nc3cc(-c4ccccc4)nn3C)nn2c(-c2cc(F)c3c(c2C)CCCO3)c1[C@H](OC(C)(C)C)C(=O)O [Example 84, (2S)-2-(tert-butoxy)-2-(7-(8-fluoro-5-methylchroman-6-yl)-5-methyl-2-((1-methyl-3-phenyl-1H-pyrazol-5-yl)carbamoyl)pyrazolo[1,5-a]pyrimidin-6-yl)acetic acid] | < 0.1 µM |  |
| Cc1nccc(-c2cccc(NC(=O)c3cc4nc(C)c([C@H](OC(C)(C)C)C(=O)O)c(-c5cc(F)c6c(c5C)CCCO6)n4n3)c2)n1 [Example 85] | < 0.1 µM | 0.016 µM |
| Cc1nc2cc(C(=O)N3CCC(c4ccc(Cl)cc4)CC3)nn2c(-c2cc(F)c3c(c2C)CCCO3)c1[C@H](OC(C)(C)C)C(=O)O [Example 86, (2S)-2-(tert-butoxy)-2-(2-(4-(4-chlorophenyl)piperidine-1-carbonyl)-7-(8-fluoro-5-methylchroman-6-yl)-5-methylpyrazolo[1,5-a]pyrimidin-6-yl)acetic acid] | < 0.1 µM |  |
| Cc1nc2cc(C(=O)N3CCN(c4ccc(F)cc4)CC3)nn2c(-c2cc(F)c3c(c2C)CCCO3)c1[C@H](OC(C)(C)C)C(=O)O [Example 87, (2S)-2-(tert-butoxy)-2-(7-(8-fluoro-5-methylchroman-6-yl)-2-(4-(4-fluorophenyl)piperazine-1-carbonyl)-5-methylpyrazolo[1,5-a]pyrimidin-6-yl)acetic acid] | < 0.1 µM |  |
| Cc1nc2cc(C(=O)NCCN3CCOCC3)nn2c(-c2cc(F)c3c(c2C)CCCO3)c1[C@H](OC(C)(C)C)C(=O)O [Example 88, (2S)-2-(tert-butoxy)-2-(7-(8-fluoro-5-methylchroman-6-yl)-5-methyl-2-((2-morpholinoethyl)carbamoyl)pyrazolo[1,5-a]pyrimidin-6-yl)acetic acid] | > 1 µM |  |
| Cc1nc2cc(C(=O)N(C)CCc3ccccn3)nn2c(-c2cc(F)c3c(c2C)CCCO3)c1[C@H](OC(C)(C)C)C(=O)O [Example 89, (2S)-2-(tert-butoxy)-2-(7-(8-fluoro-5-methylchroman-6-yl)-5-methyl-2-(methyl(2-(pyridin-2-yl)ethyl)carbamoyl)pyrazolo[1,5-a]pyrimidin-6-yl)acetic acid] | > 1 µM |  |
| Cc1nc2cc(C(=O)N3CCN(CCc4ccccc4)CC3)nn2c(-c2cc(F)c3c(c2C)CCCO3)c1[C@H](OC(C)(C)C)C(=O)O [Example 90, (2S)-2-(tert-butoxy)-2-(7-(8-fluoro-5-methylchroman-6-yl)-5-methyl-2-(4-phenethylpiperazine-1-carbonyl)pyrazolo[1,5-a]pyrimidin-6-yl)acetic acid] | 0.1 to 1 µM |  |
| Cc1nc2cc(C(=O)N3CCN(CCN4CCOCC4)CC3)nn2c(-c2cc(F)c3c(c2C)CCCO3)c1[C@H](OC(C)(C)C)C(=O)O [Example 91, (2S)-2-(tert-butoxy)-2-(7-(8-fluoro-5-methylchroman-6-yl)-5-methyl-2-(4-(2-morpholinoethyl)piperazine-1-carbonyl)pyrazolo[1,5-a]pyrimidin-6-yl)acetic acid] | > 1 µM |  |
| Cc1nc2cc(C(=O)N3CCN(Cc4ccc5c(c4)OCO5)CC3)nn2c(-c2cc(F)c3c(c2C)CCCO3)c1[C@H](OC(C)(C)C)C(=O)O [Example 92, (2S)-2-(2-(4-(benzo[d][1,3]dioxol-5-ylmethyl)piperazine-1-carbonyl)-7-(8-fluoro-5-methylchroman-6-yl)-5-methylpyrazolo[1,5-a]pyrimidin-6-yl)-2-(tert-butoxy)acetic acid] | 0.1 to 1 µM |  |
| Cc1nc2cc(C(=O)N3CCN(c4ccccc4)CC3)nn2c(-c2cc(F)c3c(c2C)CCCO3)c1[C@H](OC(C)(C)C)C(=O)O [Example 93, (2S)-2-(tert-butoxy)-2-(7-(8-fluoro-5-methylchroman-6-yl)-5-methyl-2-(4-phenylpiperazine-1-carbonyl)pyrazolo[1,5-a]pyrimidin-6-yl)acetic acid] | < 0.1 µM |  |
| Cc1nc2cc(C(=O)N3CCN(Cc4ccccc4)CC3)nn2c(-c2cc(F)c3c(c2C)CCCO3)c1[C@H](OC(C)(C)C)C(=O)O [Example 94, (2S)-2-(2-(4-benzylpiperazine-1-carbonyl)-7-(8-fluoro-5-methylchroman-6-yl)-5-methylpyrazolo[1,5-a]pyrimidin-6-yl)-2-(tert-butoxy)acetic acid] | 0.1 to 1 µM |  |
| Cc1nc2cc(C(=O)N3CCC(N4CCCCC4)CC3)nn2c(-c2cc(F)c3c(c2C)CCCO3)c1[C@H](OC(C)(C)C)C(=O)O [Example 95, (2S)-2-(2-([1,4′-bipiperidine]-1′-carbonyl)-7-(8-fluoro-5-methylchroman-6-yl)-5-methylpyrazolo[1,5-a]pyrimidin-6-yl)-2-(tert-butoxy)acetic acid] | > 1 µM |  |
| Cc1nc2cc(C(=O)N(C)CCc3ccccc3)nn2c(-c2cc(F)c3c(c2C)CCCO3)c1[C@H](OC(C)(C)C)C(=O)O [Example 96, (2S)-2-(tert-butoxy)-2-(7-(8-fluoro-5-methylchroman-6-yl)-5-methyl-2-(methyl(phenethyl)carbamoyl)pyrazolo[1,5-a]pyrimidin-6-yl)acetic acid] | < 0.1 µM | 0.077 µM |
